# Activity calls are given as the source filed them. The rule behind the calls is not given here. Residues, ends and D or L forms follow the SMILES beside them.
# Legend:
# [1] = molecular target: HLA-DRB2 protein (Homo sapiens) (UniProt Q30155); test: Inhibition of AMCA-labeled MBP (83 to 99) binding to HLA-DR2b […] in human HTC-Lan B cells at 10 fold excess after 48 hrs by fluorescence spectrophotometric method; assay type: cell-based
# [2] = molecular target: HLA-DRB2 protein (Homo sapiens) (UniProt Q30155); test: Inhibition of AMCA-labeled MBP (83 to 99) binding to HLA-DR2b […] in human HTC-Lan B cells at 20 fold excess after 48 hrs by fluorescence spectrophotometric method; assay type: cell-based
# Mus musculus [3] = test: (§1) Immunomodulatory activity in C57BL/6 mouse subcutaneously immunized using 1:1 mixture of linear and cyclic MOG35 to 55 peptide in presence of complete Freunds adjuvant (CFA) followed by intraperitoneal pertussis toxin assessed as reduction in overall disease burden measured 46 days post disease induction; assay type: functional
# Mus musculus [4] = test: as §1, with “16” for “46”; assay type: functional
# Mus musculus [5] = test: (§2) Antiinflammatory activity in C57BL/6 mouse EAE model subcutaneously immunized using 1:1 mixture of linear and cyclic MOG35 to 55 peptide in presence of complete Freunds adjuvant (CFA) followed by intraperitoneal pertussis toxin assessed as reduction in size of inflammatory foci measured 46 days post disease induction by Bielschowsky silver impregnation staining method combined with haematoxylin staining-based assay; assay type: functional
# Mus musculus [6] = test: as §2, with “16” for “46”; assay type: functional
# Mus musculus [7] = test: as §2, with “Luxol fast blue (LFB)” for “Bielschowsky silver impregnation”, “counterstained” for “method combined”, “Nuclear fast Red” for “haematoxylin”; assay type: functional
# Mus musculus [8] = test: as §2, with “16” for “46”, “Luxol fast blue (LFB)” for “Bielschowsky silver impregnation”, “counterstained” for “method combined”, “Nuclear fast Red” for “haematoxylin”; assay type: functional
# Mus musculus [9] = test: (§3) Antiinflammatory activity in C57BL/6 mouse EAE model subcutaneously immunized using 1:1 mixture of linear and cyclic MOG35 to 55 peptide in presence of complete Freunds adjuvant (CFA) followed by intraperitoneal pertussis toxin assessed as protection against axonal injury by measuring normal cell population in spinal cord measured 16 days post disease induction (reference value: 4.3%); assay type: functional
# Mus musculus [10] = test: as §3, with “as” for “as protection against”, “injury” for “injury by measuring normal cell population”, “15.2 to 42.4%)” for “4.3%)”; assay type: functional
# Mus musculus [11] = test: as §3, with “as” for “as protection against”, “injury” for “injury by measuring normal cell population”, “46” for “16”, “0.7 to 36%)” for “4.3%)”; assay type: functional
# Mus musculus [12] = test: as §3, with “loss” for “injury”; assay type: functional
# Mus musculus [13] = test: as §3, with “as” for “as protection against”, “loss” for “injury by measuring normal cell population”, “13 to 30.4%)” for “4.3%)”; assay type: functional
# Mus musculus [14] = test: as §2, with “demyelinating area” for “in size of inflammatory foci”, “Luxol fast blue (LFB)” for “Bielschowsky silver impregnation”, “counterstained” for “method combined”, “Nuclear fast Red” for “haematoxylin”; assay type: functional
# Mus musculus [15] = test: as §2, with “demyelinating area” for “in size of inflammatory foci”, “16” for “46”, “Luxol fast blue (LFB)” for “Bielschowsky silver impregnation”, “counterstained” for “method combined”, “Nuclear fast Red” for “haematoxylin”; assay type: functional
# Mus musculus [16] = test: as §2, with “demyelinating area” for “in size of inflammatory foci”; assay type: functional
# Mus musculus [17] = test: as §2, with “demyelinating area” for “in size of inflammatory foci”, “16” for “46”; assay type: functional
# Mus musculus [18] = test: as §3, with “46” for “16”, “32%)” for “4.3%)”; assay type: functional
# Mus musculus [19] = test: as §3, with “loss” for “injury”, “46” for “16”, “27.3%)” for “4.3%)”; assay type: functional
# Mus musculus [20] = test: as §3, with “as” for “as protection against”, “loss” for “injury by measuring normal cell population”, “46” for “16”, “4.7 to 26%)” for “4.3%)”; assay type: functional
# [21] = molecular target: HLA-DRB2 protein (Homo sapiens) (UniProt Q30155); test: Inhibition of AMCA-labeled MBP (83 to 99) binding to HLA-DR2b […] in human HTC-Lan B cells at 50 fold excess after 48 hrs by fluorescence spectrophotometric method; assay type: cell-based
# Sequence of HLA-DRB2 protein (Homo sapiens) (Q30155 as listed by the source): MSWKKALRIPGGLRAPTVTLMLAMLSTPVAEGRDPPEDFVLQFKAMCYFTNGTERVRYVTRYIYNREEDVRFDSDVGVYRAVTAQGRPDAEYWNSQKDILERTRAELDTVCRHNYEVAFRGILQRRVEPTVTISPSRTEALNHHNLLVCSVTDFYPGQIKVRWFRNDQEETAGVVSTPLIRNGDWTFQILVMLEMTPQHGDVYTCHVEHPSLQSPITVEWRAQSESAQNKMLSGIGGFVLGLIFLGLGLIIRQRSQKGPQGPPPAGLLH
structure (smiles),measurement,setting,value
CC[C@H](C)[C@H](NC(=O)[C@H](CC(N)=O)NC(=O)[C@H](CCCCN)NC(=O)[C@H](Cc1ccccc1)NC(=O)[C@H](Cc1ccccc1)NC(=O)[C@H](Cc1cnc[nH]1)NC(=O)[C@@H](NC(=O)[C@@H](NC(=O)[C@@H]1CCCN1C(=O)[C@H](CC(N)=O)NC(=O)[C@@H](N)CCC(=O)O)C(C)C)C(C)C)C(=O)N[C@H](C(=O)N[C@H](C(=O)N1CCC[C@H]1C(=O)N[C@@H](CCCNC(=N)N)C(=O)N[C@H](C(=O)N1CCC[C@H]1C(=O)O)[C@@H](C)O)[C@@H](C)O)C(C)C,inhibition,[1],Active
CSCC[C@H](N)C(=O)N[C@@H](CCC(=O)O)C(=O)N[C@H](C(=O)NCC(=O)N[C@@H](Cc1c[nH]c2ccccc12)C(=O)N[C@@H](Cc1ccc(O)cc1)C(=O)N[C@@H](CCCNC(=N)N)C(=O)N[C@@H](CO)C(=O)N1CCC[C@H]1C(=O)N[C@@H](Cc1ccccc1)C(=O)N[C@@H](CO)C(=O)N[C@@H](CCCNC(=N)N)C(=O)N[C@H](C(=O)N[C@H](C(=O)N[C@@H](Cc1cnc[nH]1)C(=O)N[C@@H](CC(C)C)C(=O)N[C@@H](Cc1ccc(O)cc1)C(=O)N[C@@H](CCCNC(=N)N)C(=O)N[C@@H](CC(N)=O)C(=O)NCC(=O)N[C@@H](CCCCN)C(=O)O)C(C)C)C(C)C)C(C)C (H-MEVGWYRSPFSRVVHLYRNGK-OH),inhibition,[2],Active
CSCC[C@@H]1NC(=O)[C@H](CCCCN)NC(=O)CNC(=O)[C@H](CC(N)=O)NC(=O)[C@H](CCCNC(=N)N)NC(=O)[C@H](Cc2ccc(O)cc2)NC(=O)[C@H](CC(C)C)NC(=O)[C@H](Cc2cnc[nH]2)NC(=O)[C@H](C(C)C)NC(=O)[C@H](C(C)C)NC(=O)[C@H](CCCNC(=N)N)NC(=O)[C@H](CO)NC(=O)[C@H](Cc2ccccc2)NC(=O)[C@@H]2CCCN2C(=O)[C@H](CO)NC(=O)[C@H](CCCNC(=N)N)NC(=O)[C@H](Cc2ccc(O)cc2)NC(=O)[C@H](Cc2c[nH]c3ccccc23)NC(=O)CNC(=O)[C@H](C(C)C)NC(=O)[C@H](CCC(=O)O)NC1=O (cyclo(EVGWYRSPFSRVVHLYRNGKM)),Activity,Mus musculus [3],Active
same,Activity,Mus musculus [4],Active
same,Activity,Mus musculus [5],Active
same,Activity,Mus musculus [6],Active
same,Activity,Mus musculus [7],Active
same,Activity,Mus musculus [8],Active
same,Activity,Mus musculus [9],37.1%
same,Activity,Mus musculus [10],0.9 - 40.5%
same,Activity,Mus musculus [11],0.7 - 26.5%
same,Activity,Mus musculus [12],36.2%
same,Activity,Mus musculus [13],1.7 - 27.6%
same,Activity,Mus musculus [14],Active
same,Activity,Mus musculus [15],Active
same,Activity,Mus musculus [16],Active
same,Activity,Mus musculus [17],Active
same,Activity,Mus musculus [18],48.3%
same,Activity,Mus musculus [19],45.6%
same,Activity,Mus musculus [20],2 - 27.2%
same,inhibition,[21],Active
